Where two headings read alike, the source gives them in different places.
What was measured:
Plasmodium falciparum = test: In vitro antimalarial activity, (3H) hypoxanthine incorporation in infected human erythrocytes (Desjardins test); type: cell-based; conditions: read-out: IC50 exprimée en micromoles
Description: L'activité antipaludéenne des dérivés selon les exemples précédents est testée sur l'humain infesté par Plasmodium falciparum. Le produit à tester est mis en contact avec les érythrocytes humains infectés pendant 24 heures. Un précurseur radioactif d'acides nucléiques l'Hypoxanthine (^3H) est ensuite ajouté. Le précurseur ne s'incorpore que dans les cellules infectées par un parasite en croissance, c'est à dire dans les cellules que la drogue n'aura pas affectées.
L'aptitude ou non à incorporer le précurseur reflète donc la viabilité des cellules impaludées. La durée des tests est de 60 à 70 heures ( test de DESJARDINS R.E. , CANFIELD C.J., HATNES J.D. et CHULAY J.D., Antimicrob. Agents Chemother. 1979, 16, p 710-718 ). Les résultats sont consignés dans le tableau I ci-après, sous forme de IC50 (ou DE50), soit la concentration de produit dans le milieu expérimental capable d'inhiber in vitro la croissance du parasite d'une valeur de 50%.

[1] = test system: Babesia Bovis, Babesia Canis; test: In vitro anti-Babesia activity, (3H) hypoxanthine incorporation; type: cell-based; conditions: read-out: Activité/ Babesia à 10 millimole
Description: Le procédé de criblage d'activité anti-malaria, basé sur l'incorporation de l'(^3H) Hypoxanthine par le parasite, est utilisé pour tester l'activité anti-métabolique de tels composés sur Babesia Bovis, Babesia Canis. Une relation étroite est trouvée entre le taux d'incorporation de (^3H) Hypoxanthine dans une mesure standard et le pourcentage de cellules parasitées, déterminé par examen microscopique. Cette activité métabolique est quantifiée et évaluée dans le tableau ci-dessous par la cotation +++ pour les molécules affichant dans le test une inhibition de 50 % de l'incorporation de (^3H) Hypoxanthine (ID 50), ces molécules étant à une concentration inférieure ou égale à 0,01 Micromolaire. La cotation est de ++ pour la même activité à une concentration de 0,01 à 0.1 micromolaire et enfin de + pour une concentration inférieure ou égale à 1 Micromolaire.

[2] = test system: Plasmodium vinckei, petteri, ou chabaudi; test: Therapeutic index in infected mice: 4-day Peters test activity versus semi-chronic toxicity (DL 50); type: in vivo, souris Swiss mâles; conditions: ratio of activity to toxicity under identical conditions, intraperitoneal or subcutaneous, twice a day for 4 days
Description: Afin d'évaluer l'index thérapeutique des divers produits, on a mesuré l'activité de ceux-ci dans un test in vivo et comparé à la toxicité aiguë chez l'animal . Cette activité est mesurée suivant le test décrit par PETERS W. ( Chemotherapy and Drug résistance in Malaria, 1970). Un composé est administré pendant quatre jours consécutifs à des souris préalablement impaludées par Plasmodium vinckei, petteri, ou chabaudi, ledit composé étant dissous dans une solution de NaCI à 0.9 %. Les préparations sont ainsi administrées par voie intrapéritonéale ou par voie sous-cutanée à des souris Swiss mâles infectées par voie IV, avec Plasmodium petterei ou Plasmodium chabaudi (10^6 cellules infectées ). Le composé est administré deux fois par jour pendant 4 jours consécutifs, la première injection étant pratiquée 2 heures après l'infestation et la deuxième, 10 heures après. La parasitémie est déterminée par un frottis, le jour suivant la fin du traitement. La toxicité est mesurée in vivo selon la même méthode, les animaux ayant reçu dans les conditions d'administration ci-dessus, 2 injections par jour pendant 4 jours ( toxicité semi chronique). Les résultats sont exprimés sous forme de DL 50, soit la dose ayant entraîné la mort de 50% des animaux.
Les résultats des essais sont résumés dans le tableau I ci-après sous forme d'index thérapeutique, soit le rapport de l'activité à la toxicité mésurées dans des conditions identiques comme décrit ci-dessus.

[3] = Plasmodium falciparum, Erythrocyte, concentration inhibiting in vitro parasite growth by 50 %, human erythrocytes infected with Plasmodium falciparum, 24 h contact, test lasts 60 to 70 h
[4] = class of ID 50 for (3H) hypoxanthine incorporation
[5] = concentration inhibiting in vitro parasite growth by 50 %, human erythrocytes infected with Plasmodium falciparum, 24 h contact, test lasts 60 to 70 h
[6] = Plasmodium falciparum, Erythrocyte

Row | Compound | IC50 (Plasmodium falciparum; [3]) | IC50 [1, 4] | further results
1 | CCC[N+](C)(CC)CCCCCCCCCCCCCC[N+](C)(CC)CCC (stereo not drawn) [EXEMPLE1, N, N'-dimethyl-N, N'-diethyl-N, N'-dipropyl-1, 14 tetradecanediaminium, dibromure] | 10 nM | 10 to 100 nM | 
2 | CCC[N+](C)(CC)CCCCCCCCCCCCCCC[N+](C)(CC)CCC (stereo not drawn) [EXEMPLE 2, N,N'-dimethyl-N, N'-diethyl-N, N'-dipropyl-1, 15-pentadecanediaminium, dibromure] | 10 nM | 100 to 1000 nM | 
3 | CCC[N+](C)(CC)CCCCCCCCCCCCCCCC[N+](C)(CC)CCC (stereo not drawn) [EXEMPLE 3, N.N'-dimethyl-N.N'-diethyl-N, N'-dipropyl-1,16-exadecanediaminium, dibromure] | 3 nM | 10 to 100 nM | 
4 | CCC[N+](C)(CC)CCCCCCCCCCCCCCCCC[N+](C)(CC)CCC (stereo not drawn) [EXEMPLE 4, N,N'-dimethyl-N, N'-diethyl-N, N'-dipropyl-1, 17-heptadecanediaminium, dibromure] | 2 nM | 10 to 100 nM | 
5 | CCC[N+](C)(CC)CCCCCCCCCCCCCCCCCC[N+](C)(CC)CCC (stereo not drawn) [EXEMPLE 5, N,N'-dimethyl-N,N'-diethyl-N,N'-dipropyl-1,18-octadecanediaminium, dibromure] | 1 nM | < 10 nM | 
6 | CCC[N+](C)(CC)CCCCCCCCCCCCCCCCCCCC[N+](C)(CC)CCC (stereo not drawn) [EXEMPLE 6, N, N'-dimethyl-N, N'-diethyl-N, N'-dipropyl-1,20-eicosanediaminium, dibromure] | 3 nM | 10 to 100 nM | 
7 | CCC[N+](C)(CC)CCCCCCCCCCCCCCCCCCCCCC[N+](C)(CC)CCC (stereo not drawn) [EXEMPLE 7, N,N'-dimethyl-N, N'-diethyl-N, N'-dipropyl-1,22-Cosanediaminium, dibromure] | 10 nM | 10 to 100 nM | 
8 | CCC[N+](CCC)(CCC)CCCCCCCCCCCCCC[N+](CCC)(CCC)CCC [EXEMPLE 8, N, N, N, N', N', N' hexapropyl-1, 14-tetradecanediaminium, dibromure] | 100 nM | 100 to 1000 nM | 
9 | CCC[N+](CCC)(CCC)CCCCCCCCCCCCCCCC[N+](CCC)(CCC)CCC [EXEMPLE 9, N, N, N, N', N', N' hexapropyl-1, 16-hexadecanediaminium, dibromure] |  | < 10 nM | IC50 (Plasmodium falciparum; [5]): 7 nM
10 | CCC[N+](CCC)(CCC)CCCCCCCCCCCCCCCCCCCC[N+](CCC)(CCC)CCC [EXEMPLE 10, N, N, N, N', N', N' hexapropyl-1,20-eicosanediaminium, dibromure] | 700 nM | 100 to 1000 nM | 
11 | CCC[N+](CCC)(CCC)CCCCCCCCCCCCCCCCCCCCCCCC[N+](CCC)(CCC)CCC [EXEMPLE 11, N, N, N, N', N', N' hexapropyl-1,24-tetracosanediaminium, dibromure] | 1600 nM | 100 to 1000 nM | 
12 | CCC[N+](CCC)(CCC)CCCCCCCCCCCCCCCC[N+](CCC)(CCC)CCC [EXEMPLE 12, N, N, N, N', N', N' hexapropyl-1,16-hexadecanediaminium, dibromure] |  | 10 to 100 nM | IC50 (Plasmodium falciparum; [5]): 1 nM
13 | CC[N+](C)(CC)CCCCCCCCCCCCCCCC[N+](C)(CC)CC [EXEMPLE 13, N,N'-dimethyl-N,N,N',N'-tetraethyl-1,16-hexadecanediaminium, dibromure] | 0.5 nM | < 10 nM | 
14 | CC[N+](C)(CC)CCCCCCCCCCCCCCCCCC[N+](C)(CC)CC [EXEMPLE 14, N,N'-dimethyl-N,N,N',N'-tetraethyl-1,18 octadecanediaminium, dibromure] |  |  | IC50 (Plasmodium falciparum; [6]): 0.04 nM; Index thérapeutique [2]: 14; IC50 [1]: < 10 nM
15 | CC[N+](C)(CC)CCCCCCCCCCCCCCCCCCCCC[N+](C)(CC)CC [EXEMPLE 15, N,N'-dimethyl-N,N,N',N'-tetraethyl-1,21-heneicosanediaminium, dibromure] | 0.003 nM | < 10 nM | 
16 | C[N+]1(CCCCCCCCCCCCCC[N+]2(C)CCCC2)CCCC1 [EXEMPLE 16, 1,1'-(1,14-tetradecanediyl) bis (1-methylpyrrolidinium) dibromure] |  |  | IC50 (Plasmodium falciparum; [6]): 0.9 nM; Index thérapeutique [2]: 8; IC50 [1]: < 10 nM
17 | C[N+]1(CCCCCCCCCCCCCCCC[N+]2(C)CCCC2)CCCC1 [EXEMPLE 17, 1,1-(1,16-hexadecanediyl) bis (1-methylpyrrolidinium) dibromure] |  | < 10 nM | IC50 (Plasmodium falciparum; Erythrocyte, concentration inhibiting in vitro parasite growth by 50 %, human erythrocytes infected with Plasmodium falciparum, 24 h contact, test lasts 60 to 70 h): 0.6 nM
18 | C[N+]1(CCCCCCCCCCCCCCCCCCCCCC[N+]2(C)CCCC2CO)CCCC1CO (stereo not drawn) [EXEMPLE 19, 1,1'-(1,22-docosanediyl) bis (2-hydroxymethyl1-methylpyrrolidinium) dibromure] | 70 nM | 100 to 1000 nM | 
19 | C[N+]1(CCCCCCCCCCCCCCCC[N+]2(C)CCOCC2)CCOCC1 [EXEMPLE 21, 1,1'-(1.16-hexadecanediyl) bis (1-methylmorpholinium) dibromure] | 1 nM | < 10 nM | 
20 | CCCCCCCCCCCC[N+](C)(C)CCCCCCCCCCCCCCCC[N+](C)(C)CCCCCCCCCCCC [EXEMPLE 22, N,N'-didodecyl-N,N,N',N'-tetramethyl- 1,16 hexadecanediaminium dibromure] | 1000 nM | 10 to 100 nM | 
21 | CCCCCCCCCCCC[N+](C)(C)CCCCCCCCCCCCCCCCCC[N+](C)(C)CCCCCCCCCCCC [EXEMPLE 23] | 100 nM | 100 to 1000 nM | 
22 | C#CC[N+](C)(C)CCCCCCCCCCCCCC[N+](C)(C)CC#C [EXEMPLE 24, N,N'-di (2-propynyl)-N,N,N',N'-tetramethyl-1,14-tetradecane diaminium dibromure] | 7 nM | 10 to 100 nM | 
23 | C=CC[N+](C)(C)CCCCCCCCCCCCCC[N+](C)(C)CC=C [EXEMPLE 25, N,N'-di (2-propenyl)-N,N,N',N'-tetramethyl-1,14 tetradecane diaminium dibromure] |  |  | IC50 (Plasmodium falciparum; [6]): 5 nM; Index thérapeutique [2]: 15; IC50 [1]: < 10 nM
24 | C#CCC[N+](C)(C)CCCCCCCCCCCCCC[N+](C)(C)CCC#C [EXEMPLE 26, N,N'-di (3-butynyl)-N, N, N', N'-tetramethyl 1,14-tetradecanediaminium dibromure] |  |  | IC50 (Plasmodium falciparum; [6]): 40 nM; Index thérapeutique [2]: 45; IC50 [1]: 10 to 100 nM
25 | CCC[N+](CCC)(CCO)CCCCCCCCCCCCCC[N+](CCC)(CCC)CCO [EXEMPLE 27, N, N'-di-(2-hydroxyethyl) -N, N, N', N'-tetrapropyl-1, 14 tetradecane diaminium dibromure] | 10 nM | 10 to 100 nM | 
26 | CCC[N+](CCC)(CCCCCCCCCCCCCC[N+](CCC)(CCC)CCOCC)CCOCC [EXEMPLE 28, N, N'-di-(2-ethoxyethyl)-N, N, N', N'-tetrapropyl-1, 14 tetradecanediaminium dibromure] | 10 nM | < 10 nM | 
27 | CCC[N+](CCC)(CCO)CCCCCCCCCCCCCCCC[N+](CCC)(CCC)CCO [EXEMPLE 29, N, N'-di-(2-hydroxyethyl) -N, N, N', N'-tetrapropyl-1, 1 6 hexadecane diaminium dibromure] | 5 nM | 10 to 100 nM | 
28 | CCC[N+](CCC)(CCO)CCCCCCCCCCCCCCCCCCCC[N+](CCC)(CCC)CCO [EXEMPLE 30, N, N'-di-(2-hydroxyethyl)-N, N, N', N'-tetrapropyl-1,20-eicosanediaminium dibromure] | 0.3 nM | < 10 nM | 

Reference: patent EP0917465B1, “ANTIMALARIAL AND ANTI-BABESIOSIS AGENTS AND PHARMACEUTICAL COMPOSITIONS CONTAINING THE SAME AGENTS” (priority 1996, dated 1998)
